According to patent US11964971B2, “Methods and compositions for modulating splicing” (Skyhawk Therapeutics, Inc., priority 2019, dated 2024):

What was measured:
MDR1 (P-gp) = assay: MDCK-MDR1 permeability assay, blood-brain-barrier penetration potential; conditions: dog, MDCK-MDR1, pH 7.4, MDCK-MDR1 Efflux Ratio
MDR1 = assay: in vitro; conditions: dog; for Papp A→B at 120 min, 5 μM: MDCK-MDR1, pH 7.4, MDCK-MDR1: Papp A-B (10^−6, cm/s); for Papp B→A at 120 min, 5 μM: MDCK-MDR1, pH 7.4, MDCK-MDR1: Papp B-A (10^−6, cm/s)
SMN protein = SMN protein assay (MSD) in SMA patient fibroblasts (GM03813); format: cell-based, human
Summary of the method: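 SMA patient fibroblasts GM03813 (7000 cells/well) treated 48 h with compounds from 2.5 μM to 0.6 nM. Lysate SMN protein quantified by MSD immunoassay against an SMN standard curve (1 to 19.5 μg/ml) on each plate, giving absolute amounts.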

[1] = test system: MDR1-MDCK cell monolayers; conditions: dog, MDCK-MDR1, 120 min, 5 μM, pH 7.4

SMILES | efflux ratio at 120 min, 5 μM (MDR1 (P-gp)) | Papp A→B at 120 min, 5 μM (MDR1) [nm/s] | Papp B→A at 120 min, 5 μM (MDR1) [nm/s] | EC50 (SMN protein) [nM] | MDCK-MDR1: % Recov A-B (%) [1] [%] | MDCK-MDR1: % Recov B-A (%) [1] [%]
Cn1cnc(-c2ccc(-c3cnc(N(C4CC4)[C@H]4C[C@@H]5CCC(N5)[C@H]4F)cn3)c(O)c2)cc1=O (single isomer, unassigned) [Compound 55E2] | 19 | 22.5 | 422 | 501 to 10000 | 71 | 76
COc1cc(-c2ccc(-c3cnc(N(C4CC4)[C@@H]4CC5CC[C@H](N5)[C@@H]4F)cn3)c(O)c2)ncn1 (single isomer, unassigned) [Compound 56E1] | 4 | 20.9 | 79.1 | 501 to 10000 | 17 | 51
COc1cc(-c2ccc(-c3cnc(N(C4CC4)[C@H]4C[C@@H]5CCC(N5)[C@H]4F)cn3)c(O)c2)ncn1 (single isomer, unassigned) [Compound 56E2] | 2 | 21.2 | 45.5 | 101 to 500 | 14 | 48
CNC(=O)/C=C/c1cc(O)c(-c2cnc(N(C)[C@@H]3CC4CC[C@H](N4)[C@@H]3F)cn2)cc1F (single isomer, unassigned) [Compound 60E1] | 30 | 17.1 | 513 | 51 to 100 | 93 | 88
CN(c1cnc(-c2cc(F)c(C3=CC(F)NC(F)=C3)cc2O)cn1)[C@@H]1C[C@@]2(C)CC[C@](C)(N2)[C@@H]1F (single isomer, unassigned) [Compound 63E1] | 1 | 7 | 4.5 | 501 to 10000 | 18 | 35
COc1cc(-c2cc(O)c(-c3cnc(N(C)[C@@H]4C[C@@]5(C)CC[C@](C)(N5)[C@@H]4F)cn3)cc2F)cnn1 (single isomer, unassigned) [Compound 64E1] | 13 | 39.7 | 498 | 501 to 10000 | 71 | 80
CN(c1cnc(-c2cc(F)c(-c3cn[nH]c3)cc2O)cn1)[C@@H]1CC2CC(F)(F)[C@@H](C1)N2 (single isomer, unassigned) [Compound 65E1] | 3 | 209 | 545 | 101 to 500 | 54 | 71
CN(c1cnc(-c2cc(F)c(-c3cn[nH]c3)cc2O)cn1)[C@@H]1CC2N[C@H](C1)CC2(F)F (single isomer, unassigned) [Compound 65E2] | 1 | 283 | 377 | 501 to 10000 | 54 | 63
CN(c1cnc(-c2cc(F)c(-c3cnn(C)c3)cc2O)cn1)[C@@H]1CC2CC(F)(F)[C@@H](C1)N2 (single isomer, unassigned) [Compound 66E1] | 1 | 219 | 207 | 101 to 500 | 42 | 51
CN(c1cnc(-c2cc(F)c(-c3cnn(C)c3)cc2O)cn1)[C@@H]1CC2N[C@H](C1)CC2(F)F (single isomer, unassigned) [Compound 66E2] | 1 | 227 | 183 | 501 to 10000 | 43 | 55
COc1cc(-c2cc(O)c(-c3cnc(N(C)[C@@H]4CC5CC(F)(F)[C@@H](C4)N5)cn3)cc2F)cnn1 (single isomer, unassigned) [Compound 67E1] | 2 | 222 | 425 | 501 to 10000 | 62 | 74
COc1cc(-c2cc(O)c(-c3cnc(N(C)[C@@H]4CC5N[C@H](C4)CC5(F)F)cn3)cc2F)cnn1 (single isomer, unassigned) [Compound 67E2] | 4 | 143 | 554 | 501 to 10000 | 60 | 68
COc1cc(-c2ccc(-c3cnc(N(C)[C@@H]4CC5N[C@H](C4)CC5(F)F)cn3)c(O)c2)cnn1 (single isomer, unassigned) [Compound 68E1] | 5 | 93.5 | 430 | 501 to 10000 | 63 | 86
Cc1nc(-c2ccc(-c3cnc(N(C)[C@@H]4CC5CC[C@H](N5)[C@@H]4F)cn3)c(O)c2)no1 (single isomer, unassigned) [Compound 69E1] | 2 | 94.3 | 179 | 501 to 10000 | 49 | 61
Cc1nc(-c2ccc(-c3cnc(N(C)[C@H]4C[C@@H]5CCC(N5)[C@H]4F)cn3)c(O)c2)no1 (single isomer, unassigned) [Compound 69E2] | 2 | 92.6 | 203 | 101 to 500 | 47 | 62
CN(c1cnc(-c2ccc(-c3cnn(C)c3)cc2O)cn1)[C@@H]1CC2COC[C@H](N2)[C@@H]1F (single isomer, unassigned) [Compound 73E1] | 3 | 115 | 381 | 101 to 500 | 50 | 71
CN(c1cnc(-c2ccc(-c3cnn(C)c3)cc2O)cn1)[C@H]1C[C@@H]2COCC(N2)[C@H]1F (single isomer, unassigned) [Compound 73E2] | 5 | 93.4 | 491 | 501 to 10000 | 51 | 74
COc1cc(-c2ccc(-c3cnc(N(C)[C@@H]4CC5COC[C@H](N5)[C@@H]4F)cn3)c(O)c2)cnn1 (single isomer, unassigned) [Compound 74E1] | 24 | 18.7 | 455 | 501 to 10000 | 88 | 98
CN(c1cnc(-c2ccc(-c3cc[nH]c(=O)c3)cc2O)cn1)[C@@H]1CC2CC[C@H](N2)[C@@H]1F (single isomer, unassigned) [Compound 76E1] | 102 | 2.9 | 301 | 51 to 100 | 89 | 75
